US20250179078A1, “INHIBITORS OF NLRP3” (PTC THERAPEUTICS, INC., priority 2022, published 2025)

Biological target: T1, NLRP3 (Homo sapiens, UniProt Q96P20)
T1 construct: host or cells: THP-1 cells differentiated with PMA
Experiment: IL-1β Secretion Assay (NLRP3-dependent IL1β secretion in THP1 cells)
Format: cell-based
Settings: PMA-differentiated THP-1 cells; compounds incubated 20 h; 2.5 μM Nigericin 3 h; HTRF IL-1β readout; read-out: IC50 IL-1β Inhibition
Outline: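 THP-1 cells differentiated with 100 ng/mL PMA for 24 h, then given compound (7-point 3-fold series, 1:200 from DMSO) for 20 h in RPMI+5% FBS. NLRP3 activated with 2.5 μM nigericin for 3 h; secreted IL-1β measured by HTRF; IC50 from logistic fit of % inhibition.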

T1 sequence (Q96P20 whole entry): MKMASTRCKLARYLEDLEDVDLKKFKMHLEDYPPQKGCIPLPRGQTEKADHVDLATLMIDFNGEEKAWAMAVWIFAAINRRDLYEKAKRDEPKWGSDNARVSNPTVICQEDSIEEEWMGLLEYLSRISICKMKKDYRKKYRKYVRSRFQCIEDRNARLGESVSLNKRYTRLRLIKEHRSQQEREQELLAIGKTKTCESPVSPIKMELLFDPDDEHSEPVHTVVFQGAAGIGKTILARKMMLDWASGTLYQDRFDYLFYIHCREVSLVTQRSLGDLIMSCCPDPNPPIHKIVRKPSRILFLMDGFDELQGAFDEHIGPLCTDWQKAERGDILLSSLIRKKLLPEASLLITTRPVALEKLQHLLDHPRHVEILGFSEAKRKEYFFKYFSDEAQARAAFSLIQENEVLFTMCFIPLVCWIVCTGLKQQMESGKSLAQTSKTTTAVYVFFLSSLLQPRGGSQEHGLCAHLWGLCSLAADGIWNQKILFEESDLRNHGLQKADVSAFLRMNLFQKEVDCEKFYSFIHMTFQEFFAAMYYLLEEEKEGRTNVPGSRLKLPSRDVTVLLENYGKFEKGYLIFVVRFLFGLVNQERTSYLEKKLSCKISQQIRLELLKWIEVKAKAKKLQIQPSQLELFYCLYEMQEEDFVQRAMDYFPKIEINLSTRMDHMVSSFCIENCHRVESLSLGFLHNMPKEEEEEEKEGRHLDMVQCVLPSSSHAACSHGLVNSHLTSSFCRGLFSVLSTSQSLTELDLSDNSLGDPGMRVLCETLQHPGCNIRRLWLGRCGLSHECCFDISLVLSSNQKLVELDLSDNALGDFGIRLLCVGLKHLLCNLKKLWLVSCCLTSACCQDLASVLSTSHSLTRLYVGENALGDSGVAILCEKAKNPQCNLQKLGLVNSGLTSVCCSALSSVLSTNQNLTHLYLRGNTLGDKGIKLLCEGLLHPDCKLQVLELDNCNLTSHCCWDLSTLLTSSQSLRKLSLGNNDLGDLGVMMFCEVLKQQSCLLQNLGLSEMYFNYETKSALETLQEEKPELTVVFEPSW

| IC50 | SMILES |
| --- | --- |
| 10 to 100 nM | Cc1cc2c(-c3ccc(Cl)cc3C(F)F)nnc(N[C@@H]3CCCN(C)C3)n2c1 [Compound 11, 1-[4-chloro-2-(difluoromethyl)phenyl]-7-methyl-N-[(3R)-1-methylpiperidin-3-yl]pyrrolo[1,2-d][1,2,4]triazin-4-amine] |
| 1 to 10 nM | CCN1CCC[C@@H](Nc2nnc(-c3ccc(OC)cc3OC(F)(F)F)c3cc(C)nn23)C1 [Compound 371, N-[(3R)-1-ethylpiperidin-3-yl]-4-[4-methoxy-2-(trifluoromethoxy)phenyl]-2-methylpyrazolo[1,5-d][1,2,4]triazin-7-amine] |
| < 1 nM | C[C@]1(O)C[C@@H](Nc2nnc(-c3ccc(C(F)(F)F)cc3CC(F)(F)F)c3cncn23)C1 [Compound 263, (1s,3s)-1-methyl-3-({1-[2-(2,2,2-trifluoroethyl)-4-(trifluoromethyl)phenyl]imidazo[1,5-d][1,2,4]triazin-4-yl}amino)cyclobutan-1-ol] |
| 1 to 10 nM | Cc1ccc(-c2nnc(N[C@@H]3CCCC[C@H]3O)n3cccc23)c(CC(F)(F)F)c1 [Compound 156, (1R,2R)-2-({1-[4-methyl-2-(2,2,2-trifluoroethyl)phenyl]pyrrolo[1,2-d][1,2,4]triazin-4-yl}amino)cyclohexan-1-ol] |
| < 1 nM | COc1ccc(-c2nnc(N[C@@H]3CCCN(C)C3)n3cncc23)c(OC(F)(F)F)c1 [Compound 208, 1-[4-methoxy-2-(trifluoromethoxy)phenyl]-N-[(3R)-1-methylpiperidin-3-yl]imidazo[1,5-d][1,2,4]triazin-4-amine] |
| 1 to 10 nM | COc1ccc(-c2nnc(NC[C@@H](C)O)n3cccc23)c(OC(F)(F)F)c1 [Compound 70, (2R)-1-({1-[4-methoxy-2-(trifluoromethoxy)phenyl]pyrrolo[1,2-d][1,2,4]triazin-4-yl}amino)propan-2-ol] |
| 1 to 10 nM | OCCN1CCC[C@@H](Nc2nnc(-c3ccc(C(F)(F)F)cc3C(F)(F)F)c3c(F)ccn23)C1 [Compound 30, 2-[(3R)-3-({1-[2,4-bis(trifluoromethyl)phenyl]-8-fluoropyrrolo[1,2-d][1,2,4]triazin-4-yl}amino)piperidin-1-yl]ethan-1-ol] |
| < 1 nM | CN1CCC[C@@H](Nc2nnc(-c3ccc(C4CC4)cc3C(F)(F)F)c3cncn23)C1 [Compound 207, 1-[4-cyclopropyl-2-(trifluoromethyl)phenyl]-N-[(3R)-1-methylpiperidin-3-yl]imidazo[1,5-d][1,2,4]triazin-4-amine] |
| < 1 nM | O[C@H]1CCC[C@@H](Nc2nnc(-c3ccc(C(F)(F)F)cc3OC(F)(F)F)c3cncn23)C1 [Compound 240, (1S,3R)-3-({1-[2-(trifluoromethoxy)-4-(trifluoromethyl)phenyl]imidazo[1,5-d][1,2,4]triazin-4-yl}amino)cyclohexan-1-ol] |
| 10 to 100 nM | COc1ccc(-c2nnc(N[C@@H]3CCCC[C@H]3O)n3cc(C)cc23)c(OC(F)(F)F)c1 [Compound 163, (1R,2R)-2-({1-[4-methoxy-2-(trifluoromethoxy)phenyl]-7-methylpyrrolo[1,2-d][1,2,4]triazin-4-yl}amino)cyclohexan-1-ol] |
| < 1 nM | O=C1NCCC1Nc1nnc(-c2ccc(C(F)(F)F)cc2OC(F)(F)F)c2cncn12 (stereo not shown) [Compound 256, 3-({1-[2-(trifluoromethoxy)-4-(trifluoromethyl)phenyl]imidazo[1,5-d][1,2,4]triazin-4-yl}amino)pyrrolidin-2-one] |
| 1 to 10 nM | CCN1CCC[C@@H](Nc2nnc(-c3ccc(OC)cc3OC3CC3)c3cccn23)C1 [Compound 182, 1-[2-(cyclopropyloxy)-4-methoxyphenyl]-N-[(3R)-1-ethylpiperidin-3-yl]pyrrolo[1,2-d][1,2,4]triazin-4-amine] |
| < 1 nM | CCN1CCC[C@@H](Nc2nnc(-c3ccc(Br)cc3OC(F)(F)F)c3cc(C)nn23)C1 [Compound 357, 4-[4-bromo-2-(trifluoromethoxy)phenyl]-N-[(3R)-1-ethylpiperidin-3-yl]-2-methylpyrazolo[1,5-d][1,2,4]triazin-7-amine] |
